15 molecules from BindingDB's records for doi:10.7270/Q2S46QBK (The Scripps Research Institute Molecular Screening Center, 2008) can be followed below.

The structures appear in SMILES notation. Some results are limits rather than exact numbers.

This experiment deals with T1, Signal transducer and activator of transcription 3 [702-738,740-752] (Homo sapiens, UniProt P40763).
T1 construct: 702-738,740-752
T1 sequence (P40763 as listed by the source): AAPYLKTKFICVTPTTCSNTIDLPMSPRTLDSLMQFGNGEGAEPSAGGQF
Briefly: STAT3 activation reporter response, dose response, cell-based (AID 1398).
`Cn1c(CNc2ccccc2O)nc2ccccc21` [2-[(1-methyl-2-benzimidazolyl)methylamino]phenol]: the 50% inhibitory concentration (IC50) is over 8.49 nM.

`Nc1nc(-c2ccc(Cl)cc2)nn1C(=O)c1cccs1` [MLS000706198] came in with a half-inhibitory concentration (IC50) of over 688 nM.

`COC(=O)C(NC=O)C(O)(Cc1ccccc1)C(F)(F)F` (stereo not given) [3-benzyl-4,4,4-trifluoro-2-formamido-3-hydroxy-butyric acid methyl ester] showed an IC50 of over 688 nM.

Molecule `CCCc1cc(C(=O)Nc2cc(OC)c(Cl)cc2OC)no1` [MLS000116379] had an IC50 of over 229 nM.

Turning to `Cc1cccc(NC(=O)c2cc([N+](=O)[O-])ccc2Cl)c1O` [2-chloranyl-N-(3-methyl-2-oxidanyl-phenyl)-5-nitro-benzamide], the IC50 is over 6190 nM.

In turn, `Cc1[nH]n(-c2ccccc2)c(=O)c1C=C1C(=O)NC(=O)NC1=O` showed a concentration for half-maximal inhibition (IC50) of over 55700 nM.

On to `CCCSc1nnc(Sc2nnnn2-c2ccccc2)s1` [2-(1-phenyltetrazol-5-yl)sulfanyl-5-propylsulfanyl-1,3,4-thiadiazole], for which the half-inhibitory concentration (IC50) is over 6190 nM.

Molecule `Cn1nc(-c2ccc(Cl)cc2)c2cc(C(=O)NCCCN3CCCC3)sc21` [3-(4-chlorophenyl)-1-methyl-N-(3-pyrrolidin-1-ylpropyl)thieno[2,3-c]pyrazole-5-carboxamide] had a half-maximal inhibitory concentration (IC50) of over 6190 nM.

As to `CC(=O)Nc1c(Cl)n(C(C)=O)c2ccccc12` [MLS000104263], the 50% inhibitory concentration (IC50) is over 76 nM.

For `COC(=O)c1sccc1NC(=O)c1cc2c(s1)CCCC2` [MLS000051746], the IC50 is over 2060 nM.

`COc1ccccc1C(=O)Nc1cc(Cl)ccc1O` [MLS000078111] returned a concentration for half-maximal inhibition (IC50) of over 2060 nM.

Take `COc1ccccc1NC(=O)c1[nH]c(C)c(C(C)=O)c1C` [SMR000066913]: the 50% inhibitory concentration (IC50) was over 25.5 nM.

In turn, `COc1cc(NC(=O)c2cc(C(C)C)on2)c(OC)cc1Cl` [MLS000520019] returned an IC50 of over 229 nM.

For `Cc1nonc1CC(=O)N1CCc2c([nH]c3ccccc23)C1c1ccccc1F` (stereo not given) [1-[1-(2-fluorophenyl)-1,3,4,9-tetrahydropyrido[3,4-b]indol-2-yl]-2-(4-methyl-1,2,5-oxadiazol-3-yl)ethanone], the 50% inhibitory concentration (IC50) is over 2060 nM.

As for `COc1cc(NC(=O)c2cc(C3CC3)on2)c(OC)cc1Cl` [MLS000522376], the IC50 is over 76 nM.

One may read the IC50 as the concentration needed to halve the response being measured.
